Tests used:
[1] = Example 1: flutamide therapy of a patient with anorexia nervosa; assay type: in vivo, human; settings: person with AN, 250 mg daily, follow-up in one week
Procedure: The dose of flutamide is increased to 500 mg daily (250 mg twice a day). They then return every month for an assessment of their symptomatology using the Yale-Brown-Cornell Eating Disorder Scale (YBC-EDS).

[2] = Example 5: flutamide therapy of cachexia in an AIDS patient; assay type: in vivo, human; settings: person with AIDS, 750 mg daily in three divided doses
[3] = in vivo; cited from earlier work

SMILES	tolerability of therapy [1]	initial side effects [2]	tolerability of therapy [2]	half-life [3]
CC(C)C(=O)Nc1ccc([N+](=O)[O-])c(C(F)(F)F)c1 [flutamide]	tolerated the therapy well	initial problems with diarrhea and breast tenderness	tolerated well	5.2 h
CC1(C)NC(=O)N(c2ccc([N+](=O)[O-])c(C(F)(F)F)c2)C1=O [Nilutamide, nilutamide]				40 h

Reference: patent US20010020002A1, “Androgen activity antagonists as therapies for anorexia, anorexia nervosa and disorders characterized by a pathologically underweight condition” (VELA PHARMACEUTICALS INC., priority 1997, published 2001)
